Data on two compounds can be found in US20260035340A1, “INHIBITORS OF AKR1C3 AND METHODS OF USE” (BOARD OF REGENTS OF THE UNIVERSITY OF NEBRASKA, priority 2022, published 2026).

The target in one series is AKR1C3 (Homo sapiens (Human), UniProt P42330). Kind of series: AKR enzyme inhibition assay, NADP+ dependent oxidation of S-tetralol, AKR1C3. The class given is biochemical. The note with it: Table 2.
Series [1] in a line: In vitro stability in simulated intestinal fluid (SIF). Format: in vitro ADME. Conditions: SIF for 2 h. The method, then: (§1) In vitro stability studies: Gastrointestinal (GI) fluid stability studies were performed in simulated gastric fluid (SGF) and simulated intestinal fluid (SIF). All the required media were prepared according to the USP guidelines. Mouse plasma stability were performed for neat-spiked and plasma spiked samples (pre-extraction) at 37° C. for 4 h. In addition to the analyte stability in matrix, at 48 h stability of the extracted samples was performed at 4° C. in the autosampler.

Series [2] is described as follows: In vitro metabolic stability in mouse liver microsomes. The note with it: 1 μg/mL. The class given is in vitro ADME. Here is the method:
(§2) In vitro metabolic stability in liver microsomes: Metabolic stability was assessed using mouse and human liver microsomes, (XenoTech, LLC, Lenexa, KS). Incubation of A1-r and 4r with the microsome fractions was performed in triplicate utilizing a concentration of 1 μg/mL as previously described. Serial samples (40 μL) were collected at selected time intervals and quenched with 300 μL of acetonitrile and then spiked with 10 μL of IS (0.5 μg/mL). All the samples were vortexed and centrifuged at 13,000×g for 15 min, and the supernatant was collected and transferred to an autosampler vial and injected (2 μL) onto the LC-MS/MS system. Testosterone, 7-HC and diclofenac were used as positive controls to ensure that the microsomes and incubation conditions were appropriate to conduct metabolism studies.

Series [3] in a line: In vitro stability in mouse plasma. Format: in vitro ADME. From the text:
(§3) Liquid chromatography and mass spectrometry (LCMS/MS): The ultra-performance liquid chromatography mass spectrometry system (UPLC-MS/MS) consisted of a Shimadzu 8060NX mass spectrometer and Nexera Series UPLC (Shimadzu Scientific Instruments, Columbia, MD). Analyte separation was achieved utilizing an Acquity UPLC® BEH column (C18, 2.1×100 mm, 1.7 μm) equipped with an Acquity UPLC C18 guard column (Waters, Inc. Milford MA). The mobile phase consisted of water containing 0.1% formic acid (mobile phase A) and methanol (mobile phase B) at a flow rate of 0.25 mL/min operated at room temperature. The total run time was set to last 7.5 min with a gradient elution as follows: 35% B, increasing to 95% B over 3.5 minutes, then held constant for 3.0 minutes, and finally brought back to the initial condition of 35% B in 0.20 minutes followed by 1-minute re-equilibration. The injection volume (2 μL) was consistent for all samples. The auto-sampler chamber was maintained at 4° C. throughout the analysis.
Plasma sample preparation: Plasma samples were prepared by spiking 5 μL of the appropriate calibration (CC) and quality (QCs) control working stock into a 45 μL blank mouse plasma. The concentration of the CC ranged from 0.2-1000 ng/mL with the final concentrations of 0.2, 0.5, 1, 5, 10, 50, 100, 500, and 1000 ng/mL. A simple protein precipitation technique using Phree 96 well phospholipid elimination plate (Phenomenex Inc, Torrance CA.) was utilized to isolate analyte from the plasma matrix. The CC, QCs and study plasma samples were added to Phree 96 well plate and spiked with 10 μL of IS a working solution. The precipitation of the matrix proteins was carried out using 300 μL of ice-cold acetonitrile. The plate was again vortexed on mixmate at 950 rpm for 2 min followed by applied 5 psi positive pressure for 10 min (Resprep VM-96 Vacuum Manifold for 96-Well Plates, Catalog #25858) (Restek; Bellefonte, PA) to collect the supernatant. Two microliters of the reconstituted sample was injected into LC-MS/MS for analysis. […]

The nature of series [4]: In vitro metabolic stability in human liver microsomes. The class given is in vitro ADME. The note with it: 1 μg/mL. Here is the method:
as §2

Series [5] can be described thus: In vivo pharmacokinetic study, oral gavage. The arrangement: species or system BALB/c mice.
Description: as §3
The MS/MS system was operated at unit resolution in the multiple reaction monitoring (MRM) in positive ESI mode, using precursor ion>product ion combinations of 427.20>105.10 for A1-r and 413.15>265.10 m/z for 4r. The mass spectrometer source settings were optimized to the following: nebulizer gas: 2.0 L/min; heating gas: 10 L/min; drying gas: 10 L/min; interface temperature: 300° C.; desolvation line temperature: 250° C.; heat block temperature: 400° C. Data acquisition and quantitation were performed using LabSolutions software Ver.5.99 (Shimadzu Scientific Inc, Columbia, MD).
Plasma sample preparation: Plasma samples were prepared by spiking 5 μL of the appropriate calibration (CC) and quality (QCs) control working stock into a 45 μL blank mouse plasma. The concentration of the CC ranged from 0.2-1000 ng/mL with the final concentrations of 0.2, 0.5, 1, 5, 10, 50, 100, 500, and 1000 ng/mL. A simple protein precipitation technique using Phree 96 well phospholipid elimination plate (Phenomenex Inc, Torrance CA.) was utilized to isolate analyte from the plasma matrix. The CC, QCs and study plasma samples were added to Phree 96 well plate and spiked with 10 μL of IS a working solution. The precipitation of the matrix proteins was carried out using 300 μL of ice-cold acetonitrile. The plate was again vortexed on mixmate at 950 rpm for 2 min followed by applied 5 psi positive pressure for 10 min (Resprep VM-96 Vacuum Manifold for 96-Well Plates, Catalog #25858) (Restek; Bellefonte, PA) to collect the supernatant. Two microliters of the reconstituted sample was injected into LC-MS/MS for analysis.
In vivo pharmacokinetic studies: Animal studies were approved by the University of Nebraska Medical Center (UNMC) Institutional Animal Care and Use Committee (IACUC protocol number 17-046-06-FC). BALB/c mice were purchased from Charles River Labs. Pharmacokinetic (PK) studies of A1-r and 4r were conducted in BALB/c mice. Animals were housed in the University of Nebraska Medical Center animal facility, for at least 7 days prior to the experiments, in order to acclimatize the animals to the laboratory conditions, at a temperature of 23-24° C., relative humidity of 40-70% and 12/12 h light/dark cycles with free access to food and water. The dosing solution was made of DMSO-Polyethylene glycol 400 (PEG400)-Propylene glycol (PG)-EtOH-Cremophore-PBS (2/20/10/10/5/53% v/v). Compound A1-r or 4r (10 mg/kg) was administered separately by oral gavage. After dosing, approximately 50 μL of blood was collected from the maxillary vein at 5, 15, 30 minutes and 1, 2, 7, and 24 hr (5 mice/group/per time point). A total of three blood samples were collected, with the third blood sample a terminal collection. Plasma was separated by centrifugation at 4,000×g at 4° C. for 10 minutes. The collected plasma samples were stored at −80° C. until analysis. […]

The nature of series [6]: In vitro stability in simulated gastric fluid (SGF). Format: in vitro ADME. The note with it: SGF for 1 h. Here is the method:
as §1

Another series deals with AKR1C1 (Homo sapiens (Human), UniProt Q04828). Put plainly: AKR enzyme inhibition assay, NADP+ dependent oxidation of S-tetralol, AKR1C1. The class given is biochemical. Conditions: Table 2; recombinant enzyme, S-tetralol at Km; read-out: IC50 ± SD AKR1C1.
Chain of AKR1C1 (Q04828 whole entry): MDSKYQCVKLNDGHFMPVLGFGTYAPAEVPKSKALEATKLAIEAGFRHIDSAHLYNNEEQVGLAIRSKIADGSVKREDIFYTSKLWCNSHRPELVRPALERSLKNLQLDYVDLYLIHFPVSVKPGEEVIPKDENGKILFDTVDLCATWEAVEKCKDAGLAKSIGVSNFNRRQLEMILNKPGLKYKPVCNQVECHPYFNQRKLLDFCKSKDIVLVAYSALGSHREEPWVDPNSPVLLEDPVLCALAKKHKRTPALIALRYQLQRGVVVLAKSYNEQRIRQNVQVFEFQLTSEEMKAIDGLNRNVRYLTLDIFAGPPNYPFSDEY
Another series addresses AKR1C4 (Homo sapiens (Human), UniProt P17516). Put plainly: AKR enzyme inhibition assay, AKR1C4. The class given is biochemical. The note with it: Table 2; recombinant enzyme; read-out: IC50 ± SD AKR1C4.
The target in a further series is AKR1C2 (Homo sapiens (Human), UniProt P52895). Kind of series: AKR enzyme inhibition assay, NADP+ dependent oxidation of S-tetralol, AKR1C2 counter-screen. Format: biochemical. The note with it: Table 2; recombinant enzyme, S-tetralol at Km; read-out: IC50 ± SD AKR1C2.
Chain of AKR1C2 (P52895 whole entry): as the sequence (Q04828 whole entry) above, with T38V, R47H, L54V, C87S, V151M, R170H, Q172L counted along it
In series [7] the test system is 22Rv1 tumor xenograft model of prostate cancer. Kind of series: 22Rv1 tumor xenograft study. Format: in vivo, NSG mice. The method, then:
Tumor xenograft study: All animal experiments were carried out according to approved Institutional Animal Care and Use Committee protocols at the University of Texas Southwestern Medical Center (Dallas, TX). Five-week-old female NSG mice (low circulating testosterone) were implanted with 3×10^6 22 Rv1 cells (ATCC, mycoplasma negative) in matrigel. When tumor volume reached approximately 125 mm^3 (day 11), mice were randomly divided into three groups of six mice. One group was treated with vehicle control PO (0.5% Methocel A4M+0.1% Tween 80)+vehicle IP (10% DMSO/10% cremophor EL/80% D5W). One group was treated with vehicle PO+IP 25 mg/kg A1-r in 10% DMSO/10% cremophor EL/80% D5W. One group was treated with vehicle PO+IP 50 mg/kg 4r in 10% DMSO/10% cremophor EL/80% D5W. Dosing was continued for a total of 26 days. Tumor volumes were measured twice a week with Vernier calipers, and tumor volume was calculated as (L×W^2)×3.14)/6 as previously reported. 2-3 hours after a final IP dose, animals were humanely euthanized, and tumors were collected, weighed, and frozen in liquid nitrogen after taking pictures.

[8] abbreviates: after oral administration (10 mg/kg) of 4r, Balb/c mice, plasma, mean ± SD, n = 5.
[9] abbreviates: after oral administration (10 mg/kg) of A1-r, Balb/c mice, mean ± SD, n = 5.
The mark [10] stands for this setting: after oral administration (10 mg/kg) of A1-r, Balb/c mice, plasma, mean ± SD, n = 5.

Chain of AKR1C3 (P42330 whole entry): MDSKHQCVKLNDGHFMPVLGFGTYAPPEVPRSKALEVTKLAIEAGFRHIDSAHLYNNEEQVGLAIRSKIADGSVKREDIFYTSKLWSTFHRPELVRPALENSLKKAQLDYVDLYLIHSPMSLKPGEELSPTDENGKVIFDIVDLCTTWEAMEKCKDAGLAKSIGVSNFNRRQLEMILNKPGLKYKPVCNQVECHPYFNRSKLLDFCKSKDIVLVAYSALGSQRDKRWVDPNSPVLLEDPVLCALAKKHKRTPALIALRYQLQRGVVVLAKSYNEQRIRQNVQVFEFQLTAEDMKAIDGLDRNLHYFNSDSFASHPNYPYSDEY
Chain of AKR1C4 (P17516 whole entry): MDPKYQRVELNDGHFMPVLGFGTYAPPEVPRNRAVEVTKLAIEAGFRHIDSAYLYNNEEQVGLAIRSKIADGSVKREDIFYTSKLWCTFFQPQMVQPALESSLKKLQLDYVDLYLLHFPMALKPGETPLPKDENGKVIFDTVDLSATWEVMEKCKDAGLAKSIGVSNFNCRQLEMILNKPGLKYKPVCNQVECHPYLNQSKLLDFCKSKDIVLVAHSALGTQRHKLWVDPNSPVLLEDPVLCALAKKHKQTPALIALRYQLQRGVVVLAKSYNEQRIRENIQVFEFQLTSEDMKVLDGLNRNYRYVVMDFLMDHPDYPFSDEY
Description for AKR1C1: (§4) Assay of enzyme activity: The dehydrogenase activities of AKR1C1, AKR1C2, and AKR1C3 were determined by measuring the formation of NADH formation at 340 nm using Beckman DU640 spectrophotometer. […] After continuously monitoring for 5 min, the increase in UV absorption using different concentrations of enzyme were recorded to calculate the initial velocity and determine enzyme specific activity. IC50 value determination: The inhibitory potency for each compound was represented by IC50 value and measured as described before. […] The concentration of S-tetralol used in the assays for each AKR1C isoform was equal to the Km value for the respective enzyme so that IC50 values could be directly compared assuming a competitive pattern of inhibition. […] In this equation, “range” is the fitted uninhibited value minus the “background”, and “S” is a slope factor. “I” is the concentration of inhibitor. The equation assumes that y falls with increasing “I”.
Description for AKR1C2: (§5) Structure-Activity Relationship: The ability of compounds to inhibit AKR1C3 in the first instance were determined by measuring the NADP+ dependent oxidation of S-tetralol catalyzed by recombinant enzyme as described herein. […] Assay of enzyme activity: The dehydrogenase activities of AKR1C1, AKR1C2, and AKR1C3 were determined by measuring the formation of NADH formation at 340 nm using Beckman DU640 spectrophotometer. […] After continuously monitoring for 5 min, the increase in UV absorption using different concentrations of enzyme were recorded to calculate the initial velocity and determine enzyme specific activity. IC50 value determination: The inhibitory potency for each compound was represented by IC50 value and measured as described before. […] The concentration of S-tetralol used in the assays for each AKR1C isoform was equal to the Km value for the respective enzyme so that IC50 values could be directly compared assuming a competitive pattern of inhibition. […] In this equation, “range” is the fitted uninhibited value minus the “background”, and “S” is a slope factor. “I” is the concentration of inhibitor. The equation assumes that y falls with increasing “I”.
Description for AKR1C3: as §5
Description for AKR1C4: as §4

As for `Cc1ccc(CNC(=O)c2cc(/C=C/C(=O)O)cc(-c3ccc4ncnn4c3)c2)cc1` [Compound A1-r, (E)-3-(3-([1,2,4]triazolo[1,5-a]pyridin-6-yl)-5-((4-methylbenzyl)carbamoyl)phenyl)acrylic acid], the “Selectivity 1C2:1C3” value at AKR1C3 (ratio of AKR1C2 to AKR1C3 IC50) turned out to be 1216. In addition, the half-inhibitory concentration (IC50) on AKR1C3 (recombinant enzyme, S-tetralol at Km, read-out: IC50 ± SD AKR1C3) turned out to be 0.051 ± 0.006 µM. The “stability in simulated intestinal fluid (SIF)” value in [1] was “stable”. Besides, the “metabolic stability in MLM” value in series [2] (% parent remaining) was “stable”. Further, the “time stable in mouse plasma” value in [3] (mouse plasma) is “over 240 minutes”. Besides, the “metabolic stability in HLM” value in series [4] (% parent remaining) is “stable”. For the same compound, in series [5] (setting [8]), the AUC0-t was found to be 6382.8 ng·h/mL, the Cmax amounted to 11599.4 ng/mL and the Tmax was 12 min. Moreover, in series [5] (setting [9]), the CI/F is 323 mL/min/kg, the “Extrapolated AUC %” value is 28.8% and the Vz/F was found to be 405.0 L/kg. Also, in series [5] (setting [10]), the AUC0-INF worked out at 515.1 ng·h/mL, the AUC0-t was determined as 367.6 ng·h/mL, the Cmax is on record as 174.8 ng/mL and the Tmax turned out to be 6 min. Also, the t1/2 in series [5] (setting [10]) is 864 min. In series [5] (oral 10 mg/Kg 4r, 24 hours), the “detection at the last study point (24 hours)” value is recorded as “detected”. Moreover, the “time at which detected in plasma after oral administration” value in [5] (oral 10 mg/Kg, male Balb/C mice) is at most 5 min. In series [6], the “stability in simulated gastric fluid (SGF)” value is listed as “stable”. For the same compound, the IC50 on AKR1C1 was over 100 µM. Further, the concentration for half-maximal inhibition (IC50) on AKR1C4 came to 43 ± 6 µM. The concentration for half-maximal inhibition (IC50) at AKR1C2 stood at 62 ± 21 µM.

In the case of `COC(=O)/C=C/c1cc(C(=O)NCc2ccc(C)cc2)cc(-c2ccc3ncnn3c2)c1` [Compound 4r, Methyl (E)-3-(3-([1,2,4]triazolo[1,5-a]pyridin-6-yl)-5-((4-methylbenzyl)carbamoyl)phenyl)acrylate], the “stability in simulated intestinal fluid (SIF)” value in [1] was “stable”. Further, the “degraded in MLM” value in series [2] was “approximately 25%”. Moreover, in series [3] (exposure to mouse plasma), the “time until reduced to below detectable limits in mouse plasma” value was at most 30 min. Further, in [3] (mouse plasma, 37° C.), the “stability in mouse plasma” value is on record as “unstable”. The “degraded in HLM” value in series [4] is recorded as “approximately 25%”. Besides, in series [5] (setting [8]), the AUC0-t was 36.416 ng·h/mL, the Cmax amounted to 92.796 ng/mL and the Tmax amounted to 19 min. The “detection in systemic circulation 1 hour post administration” value in series [5] (oral 10 mg/Kg 4r, 1 hour post administration) is “undetectable”. Also, the “stability in simulated gastric fluid (SGF)” value in series [6] is given as “stable”. In [7] (25 mg/Kg IP once a day for 26 days, 22Rv1 tumors in NSG mice), the “reduction of tumor volume” value is given as “approximately 30%”. Moreover, the “reduction of tumor burden” value in series [7] (50 mg/Kg IP once a day for 26 days, 22Rv1 tumors in NSG mice) is “approximately 45%”. Also, the mouse body weight entry in series [7] (25 and 50 mg/Kg IP once a day for 26 days, NSG 22Rv1 tumor-bearing mice) is “no observed loss of mouse body weight”.
